This is an account of results in paper PMC8930988, “The NSAID glafenine rescues class 2 CFTR mutants via cyclooxygenase 2 inhibition of the arachidonic acid pathway” (Scientific Reports, 2022).

The assay addresses T1, cyclooxygenase 2 (COX2) (Homo sapiens, UniProt P35354).
T1 construct: gene PTGS2; recombinant COX-2 (kit)
T1 sequence (P35354 18-604): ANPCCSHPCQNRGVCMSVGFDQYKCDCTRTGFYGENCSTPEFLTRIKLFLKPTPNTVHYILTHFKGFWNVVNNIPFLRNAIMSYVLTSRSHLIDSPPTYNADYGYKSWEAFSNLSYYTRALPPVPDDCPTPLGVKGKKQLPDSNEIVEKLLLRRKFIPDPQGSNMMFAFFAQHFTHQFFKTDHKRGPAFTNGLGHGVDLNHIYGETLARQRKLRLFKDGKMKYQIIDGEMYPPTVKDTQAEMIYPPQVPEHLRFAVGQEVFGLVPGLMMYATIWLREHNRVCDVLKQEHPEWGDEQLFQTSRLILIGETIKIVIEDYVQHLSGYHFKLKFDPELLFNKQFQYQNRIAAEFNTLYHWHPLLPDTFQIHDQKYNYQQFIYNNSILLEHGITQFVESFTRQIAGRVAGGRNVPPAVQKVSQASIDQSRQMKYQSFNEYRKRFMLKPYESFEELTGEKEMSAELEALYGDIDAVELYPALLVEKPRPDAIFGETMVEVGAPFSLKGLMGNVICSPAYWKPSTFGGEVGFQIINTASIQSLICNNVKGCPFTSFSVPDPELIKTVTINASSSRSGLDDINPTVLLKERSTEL
The experiment in a line: COX activity assay with recombinant enzyme, […] compound (Fig. 4E). It is filed as biochemical.

Where a name gives a salt, the structure may show the parent alone.

Take `O=C(OCC(O)CO)c1ccccc1Nc1ccnc2cc(Cl)ccc12` (stereo not shown) [compound 37, 2,3-dihydroxypropyl 2-[(7-chloroquinolin-4-yl)amino] benzoate; hydrochloride]: the “COX activity assay with recombinant enzyme, 10 μM compound (Fig. 4E)” value was “COX2 inhibition is required for glafenine-mediated CFTR correction and that glafenine interacts directly with COX2”.
